The record followed here is ChEMBL document CHEMBL4627397 (J Med Chem, 2020).

One data set in a line: physchem. To be noted: octanol/water, pH 7.4.
Data set [1] can be described thus: in vitro. To be noted: dog, MDCK.
Description: Apparent permeability in RRCK cells
Data set [2] can be described thus: in vitro. The following applies: human, hepatocytes.
Description: Intrinsic clearance in human hepatocytes at 0.2 nmol assessed per million cells up to 240 mins in presence of NADPH by LC-MS/MS analysis
A short description of data set [3]: in vitro. To be noted: human, liver microsomes. Background: Liver microsomes are a subcellular fraction often used to study metabolism.

Description for physchem: Octanol/water partition coefficient, log D of compound at pH 7.4 by shake-flask method

One may read the logD as lipophilicity at a set pH, counting ionised and neutral species. In general, Papp refers to the rate of passage across a membrane or cell layer, normalised by area and donor concentration. Read a low Papp as poor permeation. Broadly, the hepatocyte CLint is the capacity of the preparation to metabolise the compound, expressed as a volume cleared per time. A lower hepatocyte CLint goes with greater metabolic stability. In the data set “physchem”, `OC1Cc2cc(Cl)ccc2C(=C2CCNCC2)c2ncccc21` (configuration not stated) showed a logD of 1.1. For the same compound, the Papp in “in vitro [1]” was found to be 78.4 ×10⁻⁶ cm/s. This compound registered a hepatocyte CLint at 4 h in the data set “in vitro [2]” of 3.14 µL/min/1e6 cells.

Usually microsomal CLint stands for a measure of how fast metabolising enzymes remove a compound, apart from limits set by blood flow. As to `CCOC(=O)N1CCC(=C2c3ccc(Cl)cc3CCc3ccc(C(F)F)nc32)CC1`, in the data set “in vitro [3]”, the microsomal CLint at 1 h, 10 µM came to 108 µL/min/mg. Moreover, in “physchem”, the logD was 4.6. Also, the Papp in the data set “in vitro [1]” came to 7.7 ×10⁻⁶ cm/s. In the data set “in vitro [2]”, this compound registered a hepatocyte CLint at 4 h of 48.7 µL/min/1e6 cells.

`CCOC(=O)N1CCC(=C2c3ccc(Cl)cc3C=Cc3cccnc32)CC1` registered a logD in “physchem” of 2.6. The compound further displayed a Papp in “in vitro [1]” of 98 ×10⁻⁶ cm/s. In “in vitro [2]”, the hepatocyte CLint at 4 h came out at 9 µL/min/1e6 cells.

In the data set “physchem”, `OC1Cc2cccnc2C(=C2CCNCC2)c2ccc(Cl)cc21` (configuration not stated) returned a logD of 0.94. The Papp in the data set “in vitro [1]” worked out at 79.9 ×10⁻⁶ cm/s. Further, in “in vitro [2]”, the hepatocyte CLint at 4 h was < 1.75 µL/min/1e6 cells.

In the case of `CCOC(=O)N1CC(O)C(=C2c3ccc(Cl)cc3CCc3cccnc32)C(O)C1` (configuration not stated), the microsomal CLint at 1 h, 10 µM in “in vitro [3]” was found to be 35 µL/min/mg. In addition, in the data set “physchem”, the logD stood at 2.8. This compound also came in with a Papp in the data set “in vitro [1]” of 23 ×10⁻⁶ cm/s. Also, in the data set “in vitro [2]”, the hepatocyte CLint at 4 h was 18 µL/min/1e6 cells.

In turn, `CCOC(=O)N1CCC(=C2c3ccc(Cl)cc3C(O)Cc3cccnc32)CC1` (configuration not stated) displayed a microsomal CLint at 1 h, 10 µM in “in vitro [3]” of 157 µL/min/mg. Moreover, the logD in the data set “physchem” was found to be 3.2. The compound further yielded a Papp in the data set “in vitro [1]” of 26.2 ×10⁻⁶ cm/s. The hepatocyte CLint at 4 h in the data set “in vitro [2]” came to 40 µL/min/1e6 cells.

In turn, `CCOC(=O)N1C=C/C(=C2\c3ccc(Cl)cc3CC(O)c3cccnc32)CC1` (configuration not stated) had a logD in “physchem” of 3.4. The Papp in “in vitro [1]” stood at 78 ×10⁻⁶ cm/s. The intrinsic metabolic clearance (hepatocyte CLint) at 4 h in the data set “in vitro [2]” turned out to be 82 µL/min/1e6 cells.

In “in vitro [3]”, `CCOC(=O)N1C=C/C(=C2/c3ccc(Cl)cc3CCc3cc(O)cnc32)CC1` returned a microsomal CLint at 1 h, 10 µM of 61 µL/min/mg. The same compound showed a log distribution coefficient (logD) in “physchem” of 3.9. This compound gave a hepatocyte CLint at 4 h in the data set “in vitro [2]” of 62 µL/min/1e6 cells.

Take `CCOC(=O)N1CC/C(=C2/c3ccc(Cl)cc3CCc3cccnc32)C(O)C1` (configuration not stated): the microsomal CLint at 1 h, 10 µM in “in vitro [3]” worked out at 51 µL/min/mg. Besides, the logD in the data set “physchem” stood at 3.1. In “in vitro [1]”, this compound registered a Papp of 22 ×10⁻⁶ cm/s. Further, the hepatocyte CLint at 4 h in “in vitro [2]” turned out to be 19 µL/min/1e6 cells.

As for `CCOC(=O)N1C=C/C(=C2\c3ccc(Cl)cc3CCc3cc(O)cnc32)CC1`, the microsomal CLint at 1 h, 10 µM in “in vitro [3]” was 66 µL/min/mg. Further, the logD in “physchem” was found to be 3.1. In “in vitro [2]”, this compound showed a hepatocyte CLint at 4 h of 67 µL/min/1e6 cells.

As to `CCOC(=O)N1CCC2(CC1)OC21c2ccc(Cl)cc2CCc2cccnc21` (configuration not stated), in the data set “in vitro [3]”, the microsomal CLint at 1 h, 10 µM was 89 µL/min/mg. Moreover, the logD in the data set “physchem” is 2.9. This compound yielded a Papp in “in vitro [1]” of 17.9 ×10⁻⁶ cm/s. For the same compound, the hepatocyte CLint at 4 h in the data set “in vitro [2]” was found to be 26.2 µL/min/1e6 cells.

As for `CCOC(=O)N1CCC2(CC1)OC21c2ccc(Cl)cc2CCc2ccc[n+]([O-])c21` (configuration not stated), in the data set “in vitro [3]”, the microsomal CLint at 1 h, 10 µM was < 7 µL/min/mg. The same compound displayed a logD in the data set “physchem” of 2.1. Further, in “in vitro [1]”, the Papp stood at 15.2 ×10⁻⁶ cm/s. In “in vitro [2]”, this compound gave a hepatocyte CLint at 4 h of 4.6 µL/min/1e6 cells.

Turning to `CCOC(=O)N1CCC(=C2c3ccc(Cl)cc3CC(F)c3cccnc32)CC1` (configuration not stated), the microsomal CLint at 1 h, 10 µM in “in vitro [3]” was 120 µL/min/mg. In the data set “physchem”, this compound yielded a logD of 4.5. Also, the Papp in “in vitro [1]” turned out to be 13 ×10⁻⁶ cm/s. The intrinsic metabolic clearance (hepatocyte CLint) at 4 h in the data set “in vitro [2]” was found to be 32 µL/min/1e6 cells.

In “in vitro [3]”, `CCOC(=O)N1CCC(=C2c3ccc(Cl)cc3CCc3c(CO)ccnc32)CC1` yielded a microsomal CLint at 1 h, 10 µM of 283 µL/min/mg. Also, the logD in “physchem” was determined as 2.6. Moreover, in the data set “in vitro [1]”, the Papp was found to be 16.2 ×10⁻⁶ cm/s. Besides, the hepatocyte CLint at 4 h in the data set “in vitro [2]” was determined as 58.6 µL/min/1e6 cells.

In the data set “in vitro [3]”, `CCOC(=O)N1CCC(=C2c3ccc(Cl)cc3CCc3ccc[n+]([O-])c32)CC1` had a microsomal CLint at 1 h, 10 µM of 48 µL/min/mg. In the data set “physchem”, this compound gave a logD of 2.8. Further, in the data set “in vitro [1]”, the Papp turned out to be 26.8 ×10⁻⁶ cm/s. Further, the hepatocyte CLint at 4 h in “in vitro [2]” is 17.8 µL/min/1e6 cells.

In the data set “physchem”, `Clc1ccc2c(c1)CCc1cccnc1C2=C1CCNCC1` [DESLORATADINE] returned a logD of 1.3. Moreover, in “in vitro [1]”, the Papp came to 2.8 ×10⁻⁶ cm/s.

`CCOC(=O)N1C=C/C(=C2\c3ccc(Cl)cc3CCc3cccnc32)CC1` showed a microsomal CLint at 1 h, 10 µM in “in vitro [3]” of 68 µL/min/mg. The logD in “physchem” came to 4.3. In “in vitro [1]”, this compound came in with a Papp of 40 ×10⁻⁶ cm/s.

In the case of `CCOC(=O)N1C=C/C(=C2/c3ccc(Cl)cc3CCc3cccnc32)CC1`, the logD in “physchem” was determined as 3.6. The compound further yielded a Papp in “in vitro [1]” of 53 ×10⁻⁶ cm/s.

Take `CCOC(=O)N1CCC(=C2c3ccc(Cl)cc3CCc3ccc[n+](C)c32)CC1`: in “in vitro [3]”, the microsomal CLint at 1 h, 10 µM was 23 µL/min/mg. For the same compound, the logD in “physchem” worked out at 0.3. For the same compound, in “in vitro [1]”, the Papp turned out to be 0.2 ×10⁻⁶ cm/s. This compound had a hepatocyte CLint at 4 h in the data set “in vitro [2]” of 6 µL/min/1e6 cells.

Compound `CCOC(=O)N1CCC(=C2c3ccc(Cl)cc3CCc3cc(O)cnc32)CC1` yielded a microsomal CLint at 1 h, 10 µM in the data set “in vitro [3]” of 132 µL/min/mg. Further, the logD in “physchem” turned out to be 3.1. Moreover, in the data set “in vitro [1]”, the Papp stood at 11 ×10⁻⁶ cm/s. This compound also displayed a hepatocyte CLint at 4 h in the data set “in vitro [2]” of 96 µL/min/1e6 cells.

In turn, `CCOC(=O)N1CCC(=C2c3ccc(Cl)cc3CC(O)c3cccnc32)CC1` (configuration not stated) yielded a microsomal CLint at 1 h, 10 µM in “in vitro [3]” of 132 µL/min/mg. The logD in “physchem” was 3.3. The same compound registered a Papp in the data set “in vitro [1]” of 23.7 ×10⁻⁶ cm/s. This compound showed a hepatocyte CLint at 4 h in the data set “in vitro [2]” of 61.5 µL/min/1e6 cells.

Take `CCOC(=O)N1C(O)CC(=C2c3ccc(Cl)cc3CCc3cccnc32)CC1O` (configuration not stated): the microsomal CLint at 1 h, 10 µM in “in vitro [3]” came to 21 µL/min/mg. Besides, in the data set “physchem”, the logD came out at 2.3. In addition, the Papp in “in vitro [1]” was 19.8 ×10⁻⁶ cm/s. For the same compound, the hepatocyte CLint at 4 h in the data set “in vitro [2]” stood at 14 µL/min/1e6 cells.
